According to paper PMC2212834 (The Journal of Experimental Medicine, 2005):

Target: T1, ChemR23 (Homo sapiens, UniProt Q99788)
T1 sequence (Q99788 1-373): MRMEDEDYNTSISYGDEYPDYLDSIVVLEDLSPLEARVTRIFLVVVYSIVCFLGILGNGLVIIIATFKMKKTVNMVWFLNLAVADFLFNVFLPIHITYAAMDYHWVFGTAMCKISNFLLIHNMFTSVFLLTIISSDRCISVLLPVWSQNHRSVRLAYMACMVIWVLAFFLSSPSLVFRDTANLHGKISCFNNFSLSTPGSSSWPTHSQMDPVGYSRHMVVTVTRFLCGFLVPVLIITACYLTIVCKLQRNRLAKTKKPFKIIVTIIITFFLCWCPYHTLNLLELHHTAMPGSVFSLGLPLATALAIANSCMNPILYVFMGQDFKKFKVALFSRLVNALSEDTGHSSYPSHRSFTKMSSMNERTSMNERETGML
Experiment: [3H]-RvE1 saturation radioligand binding
Type: cell-based

For `CC[C@@H](O)/C=C/C=C\C[C@@H](O)/C=C/C=C/C=C\[C@@H](O)CCCC(=O)O` [RvE1, 5S,12R,18R-trihydroxy-6Z,8E,10E,14Z,16E-EPA], the Kd was 11.3 ± 5.4 nM.
